Measured values reported in US20260115213A1 (priority 2021, published 2026).

Experiments:
[1] = target: T1, eIF4A1(19-406)-(AG)5-AMPPNP complex (purified recombinant human eIF4A) (Homo sapiens, UniProt P60842); assay: Thermal shift assay, melting temperature of eIF4A1(19-406)-(AG)5-AMPPNP-rocaglate complexes; format: binding; settings: 5 μM eIF4A, 50 μM (AG)5 RNA, 1 mM AMP-PNP, 100 μM compound; DMSO negative control Tm=48.80
T1 construct: eIF4A1(19-406)=amino acid residues 19-406 of eIF4A1; made in house
T1 sequence (P60842 19-406, one chain of several): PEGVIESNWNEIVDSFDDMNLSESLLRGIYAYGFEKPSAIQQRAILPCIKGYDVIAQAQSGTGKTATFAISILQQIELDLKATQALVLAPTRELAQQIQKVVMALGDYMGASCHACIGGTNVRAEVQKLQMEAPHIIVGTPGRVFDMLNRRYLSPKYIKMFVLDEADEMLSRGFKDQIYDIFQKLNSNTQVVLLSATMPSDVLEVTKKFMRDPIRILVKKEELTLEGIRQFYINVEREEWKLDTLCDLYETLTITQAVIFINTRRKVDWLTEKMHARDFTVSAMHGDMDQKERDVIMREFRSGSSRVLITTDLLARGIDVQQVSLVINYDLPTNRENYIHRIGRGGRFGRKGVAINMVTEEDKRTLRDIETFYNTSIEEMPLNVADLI
Experimental: A thermal shift assay was performed to study the complexing of the synthetic rocaglates with the eIF4A complex. For the thermal shift assay a final protein concentration of 5 μM purified recombinant human eIF4A (purification according to Iwasaki, et al., 2019) was used. In a reaction volume of 20 μL a 10-fold excess of polypurine RNA ((AG)5) (biomers) (final concentration: 50 μM), 1 mM of the ATP analogue AMP-PNP (ROCHE™), 100 μM of the synthetic rocaglate compounds or DMSO as well as 0.3 μL SYPRO® Orange Protein Gel Stain (SIGMA-ALDRICH™) were mixed with the protein. The measurement was performed in a MICROAMP® Fast 96-Well Reaction Plate (0.1 mL, APPLIED BIOSYSTEMS™) using the QUANTSTUDIO3™ Real-Time PCR System (APPLIED BIOSYSTEMS™). The melt curve starting temperature was set to 10° C. in increments of 0.05° C./s ending at 95° C. After measurement, the data was analyzed using the PROTEIN THERMAL SHIFT™ Software (APPLIED BIOSYSTEMS™).

[2] = test system: 5′-UTR of beta-globin; settings: HepG2 cells, 5, 10, 50 and 100 nM, 48 h, normalized to Renilla and DMSO control
[3] = test system: 5′-UTR of (AG)15; settings: HepG2 cells, 5, 10, 50 and 100 nM, 48 h, normalized to Renilla and DMSO control
[4] = test system: RNA viruses representing different virus families (EBOV, CoV, ZIKV, CHIKV, HEV); settings: non-cytotoxic concentrations; cited from earlier work

SMILES	melting temperature (Tm) of eIF4A1(19-406)-(AG)5-AMPPNP-Rocaglate complex [1]	also measured
CONC(=O)[C@H]1[C@@H](O)[C@@]2(O)c3c(OC)cc(OC)cc3O[C@@]2(c2ccc(O)cc2)[C@@H]1c1ccccc1 [Compound 1, (1R,2R,3S,3aR,8bS)-1,8b-dihydroxy-3a-(4-hydroxyphenyl)-N,6,8-trimethoxy-3-phenyl-2,3-dihydro-1Hcyclopenta[b]benzofuran-2-carboxamide]	51.49	reporter activity, β-globin 5′-UTR (eIF4A-independent effect) [2]: nonspecific effects
CONC(=O)[C@H]1[C@@H](O)[C@@]2(O)c3c(OC)cc(O)cc3O[C@@]2(c2ccc(OC)cc2)[C@@H]1c1ccccc1 [Compound 6, (1R,2R,3S,3aR,8bS)-1,6,8b-trihydroxy-N,8-dimethoxy-3a-(4-methoxyphenyl)-3-phenyl-2,3-dihydro-1Hcyclopenta[b]benzofuran-2-carboxamide]	51.29	
CONC(=O)[C@@H]1[C@H](O)[C@]2(O)c3c(OC)cc(O)cc3O[C@]2(c2ccc(OC)cc2)[C@H]1c1ccccc1 [Compound 7, (1S,2S,3R,3aS,8bR)-1,6,8b-trihydroxy-N,8-dimethoxy-3a-(4-methoxyphenyl)-3-phenyl-2,3,3a,8b-tetrahydro-1H-cyclopenta[b]benzofuran-2-carboxamide]	49.07	
COc1cc(OC)c2c(c1)O[C@]1(c3ccc(O)cc3)[C@@H](c3ccccc3)[C@H](C(N)=O)[C@H](O)[C@]21O [Compound 8, (1S,2S,3R,3aS,8bR)-1,8b-dihydroxy-3a-(4-hydroxyphenyl)-6,8-dimethoxy-3-phenyl-2,3-dihydro-1H-cyclopenta[b]benzofuran-2-carboxamide]	51.07	
COc1cc(OC)c2c(c1)O[C@@]1(c3ccc(O)cc3)[C@H](c3ccccc3)[C@@H](C(N)=O)[C@@H](O)[C@@]21O [Compound 9, (1R,2R,3S,3aR,8bS)-1,8b-dihydroxy-3a-(4-hydroxyphenyl)-6,8-dimethoxy-3-phenyl-2,3-dihydro-1H-cyclopenta[b]benzofuran-2-carboxamide]	55.44	reporter activity, (AG)15 5′-UTR (eIF4A-dependency) [3]: only reduced reporter activity with polyAG sequences
COC(=O)[C@H]1[C@@H](O)[C@@]2(O)c3c(OC)cc(O[C@@H]4O[C@@H]([C@H](O)CO)CO[C@H]4OC)cc3O[C@@]2(c2ccc(OC)cc2)[C@@H]1c1ccccc1 [Silvestrol, methyl (1R,2R,3S,3aR,8bS)-6-[[(2S,3R,6R)-6-[(1R)-1,2-dihydroxyethyl]-3-methoxy-1,4-dioxan-2-yl]oxy]-1,8b-dihydroxy-8-methoxy-3a-(4-methoxyphenyl)-3-phenyl-2,3-dihydro-1H-cyclopenta[b][1]benzofuran-2-carboxylate]		concentration range of broad-spectrum antiviral activity [4]: low nanomolar range
